# Laboratory results taken from patent publication US12306535B2, “Photoacid generator for chemically amplified photoresists for deep ultra violet and extreme ultraviolet lithography” (International Business Machines Corporation, priority 2022, dated 2025).
# Test: not given
# Details: smaller than that of tris(trifluoromethylsulfonyl)methane; cited from earlier work
row,Compound,acid-dissociation constant
1,CC1(C)C2CCC1(CS(=O)(=O)O)C(=O)C2 (stereo not drawn) [camphorsulfonic anions],about 18 orders of magnitude
2,p-toluenesulfonate [p-toluenesulfonate anions],about 18 orders of magnitude

# Test: not given
# Details: relative to triphenylantimony and triphenylbismuth; cited from earlier work
row,Compound,mean lethal dose LD50
1,triphenyltin,one to two orders of magnitude lower

# Test: Acid-dissociation constant relative to tris(trifluoromethylsulfonyl)methane
# Type: physicochemical
# Details: compared with tris(trifluoromethylsulfonyl)methane
row,Compound,acid-dissociation constant of acids generated upon UV exposure
1,"N#Cc1[b-]2c(C#N)c(C#N)c(C#N)c(C#N)c2c(C#N)c(C#N)c1C#N.c1ccc([S+](c2ccccc2)c2ccccc2)cc1 [17B, triphenylsulfonium 1,2,3,4,5,6,7,8-octacyanobenzo[a]borinine]",higher than that of tris(trifluoromethylsulfonyl)methane
2,"N#Cc1[b-]2c(C#N)c(C#N)c(C#N)c(C#N)c2c(C#N)c(C#N)c1C#N.c1ccc([I+]c2ccccc2)cc1 [17D, diphenyliodonium 1,2,3,4,5,6,7,8-octacyanobenzo[a]borinine]",higher than that of tris(trifluoromethylsulfonyl)methane
3,"N#Cc1[b-]2c(C#N)c(C#N)c(C#N)c(C#N)c2c(C#N)c(C#N)c1C#N.c1ccc([S+]2CCCC2)cc1 [17F, phenylthiolanium 1,2,3,4,5,6,7,8-octacyanobenzo[a]borinine]",higher than that of tris(trifluoromethylsulfonyl)methane
4,"diphenyliodonium bis(1,2,2-tricyanoethen-1-yl)-(1,1,2,4,5,5-hexacyanopent-1,4-dien-3-yl)borane [17C]",higher than that of tris(trifluoromethylsulfonyl)methane
5,"phenylthiolanium bis(1,2,2-tricyanoethen-1-yl)-(1,1,2,4,5,5-hexacyanopent-1,4-dien-3-yl)borane [17E]",higher than that of tris(trifluoromethylsulfonyl)methane
6,"triphenylsulfonium bis(1,2,2-tricyanoethen-1-yl)-(1,1,2,4,5,5-hexacyanopent-1,4-dien-3-yl)borane [17A]",higher than that of tris(trifluoromethylsulfonyl)methane
